Measurements: ChEMBL document CHEMBL1127558, “Synthesis and characterization of selective fluorescent ligands for the neurokinin NK2 receptor” (J Med Chem, 1994)
Numbered stars: 1 amine (or outer) side, 2 acyl side, 3 side chain; on linkers, the order of the positions; unused ones are H or OH. Square brackets hold non-standard residues; d marks the D form. Peptide text beside a SMILES is read from it. * marks the point of attachment. X1 = C[C@@H](C(=O)[*:2])N(c1ccc([N+](=O)[O-])c2nonc12)[*:1]; Nle = CCCC[C@H](N)C(=O)O; Bz = O=C(c1ccccc1)*

Molecular target: T1, Substance-K receptor (Homo sapiens, UniProt P21452)
T1 sequence (P21452 whole entry): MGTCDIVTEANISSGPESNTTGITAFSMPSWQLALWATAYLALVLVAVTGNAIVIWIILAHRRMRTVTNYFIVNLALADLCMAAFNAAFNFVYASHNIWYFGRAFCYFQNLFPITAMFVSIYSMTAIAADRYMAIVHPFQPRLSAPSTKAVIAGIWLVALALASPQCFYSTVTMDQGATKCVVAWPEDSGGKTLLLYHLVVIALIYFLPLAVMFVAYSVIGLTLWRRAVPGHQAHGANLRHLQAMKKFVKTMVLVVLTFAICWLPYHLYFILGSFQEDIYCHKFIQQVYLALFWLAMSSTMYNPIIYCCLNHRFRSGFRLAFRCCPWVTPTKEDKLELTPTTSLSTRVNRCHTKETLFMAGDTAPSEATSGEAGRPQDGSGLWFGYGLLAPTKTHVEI
Assay: Binding affinity against human NK2 receptors expressed in CHO cells using [3H]GR-100679 as radioligand
Assay type: cell-based

| SMILES | Ki | Log Ki (cho) |
| --- | --- | --- |
| CCCC[C@H](NC(=O)[C@@H]1CCCN1C(=O)[C@@H]1CCCN1C(=O)[C@H](Cc1ccccc1)NC(=O)[C@H](Cc1c[nH]c2ccccc12)NC(=O)[C@H](C)NC(=O)[C@H](C)NC(=O)c1ccccc1)C(N)=O (Bz-AAWFPP[Nle]-NH2) | 0.155 nM |  |
| CCCC[C@H](NC(=O)[C@@H]1CCCN1C(=O)[C@H]1CCCN1C(=O)[C@H](Cc1ccccc1)NC(=O)[C@@H](Cc1c[nH]c2ccccc12)NC(=O)[C@H](C)NC(=O)[C@H](CCCCNC(=S)Nc1ccc2c(c1)C(=O)OC21c2ccc(O)cc2Oc2cc(O)ccc21)NC(=O)c1ccccc1)C(N)=O | 24.5 nM |  |
| CCCC[C@H](NC(=O)[C@@H]1CCCN1C(=O)[C@H]1CCCN1C(=O)[C@H](Cc1ccccc1)NC(=O)[C@@H](Cc1c[nH]c2ccccc12)NC(=O)[C@H](C)NC(=O)[C@H](C)/N=C(/S)Nc1ccc2c(c1)C(=O)OC21c2ccc(O)cc2Oc2cc(O)ccc21)C(N)=O |  | -5.99 |
| CCCC[C@H](NC(=O)[C@@H]1CCCN1C(=O)[C@@H]1CCCN1C(=O)[C@H](Cc1ccccc1)NC(=O)[C@H](Cc1c[nH]c2ccccc12)NC(=O)[C@H](C)NC(=O)[C@H](C)Nc1ccc([N+](=O)[O-])c2nonc12)C(N)=O (H-[X1]AWFPP[Nle]-NH2) | 87.1 nM |  |
